Measurements: patent US12043600B2, “Microbiocidal compounds” (SYNGENTA CROP PROTECTION AG, priority 2018, dated 2024)
Like-named read-outs stand apart in the source and are kept apart here.

Legend:
[1] = system: Phytophthora infestans; assay: whole plant or invertebrate; format: in vivo; conditions: in Solanum lycopersicum, foliar, read-out: control of Phytophthora infestans
[2] = system: Pyrenophora teres; assay: Pyrenophora teres/Barley/Leaf Disc Preventative (Net Blotch); format: in vivo; conditions: foliar, 200 ppm, barley leaf disc preventative, compared to untreated control, read-out: control of Pyrenophora teres
Source text: Barley leaf segments cv. Hasso are placed on agar in a multiwell plate (24-well format) and sprayed with the formulated test compound diluted in water. The leaf segments are inoculated with a spore suspension of the fungus 2 days after application. […] The data are presented as the percentage of disease control of each compound for the biological tests against G. lagenarium (Example B3), P. recondita preventative (Example B13), P. teres (Example B15) and M. graminicola (Example B19) as described above. The testing rates of each biological test is specifically described in table C1 below.

[3] = system: Magnaporthe grisea (Pyricularia oryzae); assay: whole plant or invertebrate; format: in vivo; conditions: foliar, read-out: control of Magnaporthe grisea
[4] = system: Puccinia recondita f. sp. tritici; assay: Puccinia recondita f. sp. tritici/Wheat/Leaf Disc Preventative (Brown Rust); format: in vivo; conditions: foliar, 200 ppm, wheat leaf disc preventative, compared to untreated control, read-out: control of Puccinia recondita f. sp. tritici
[5] = system: Phaeosphaeria nodorum (Septoria nodorum); assay: Phaeosphaeria nodorum (Septoria nodorum)/Wheat/Leaf Disc Preventative (Glume Blotch); format: in vivo; conditions: Parastagonospora nodorum, foliar, wheat leaf disc preventative, compared to untreated control
Procedure, shortened: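 Preventative test: compound spray first, then spore inoculation after 2 days on cv. Kanzler wheat leaf segments. Incubation in a climate cabinet at 20 °C and 75% rh under a 12 h light/12 h dark cycle. Activity rated as % control relative to untreated discs at 5–7 days post-application.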

[6] = system: Plasmopara viticola; assay: whole plant or invertebrate; format: in vivo; conditions: foliar, read-out: control of Plasmopara viticola
[7] = system: Mycosphaerella arachidis (Cercospora arachidicola); assay: Mycosphaerella arachidis (Cercospora arachidicola)/Liquid Culture (Early Leaf Spot); format: cell-based; conditions: liquid culture, compared to untreated control
Procedure, shortened: (§1)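 Liquid-culture format using potato dextrose broth inoculated directly with cryopreserved conidia, dosed with compound from a DMSO solution.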

[8] = system: Alternaria solani; assay: Alternaria solani/Tomato/Leaf Disc (Early Blight); format: in vivo; conditions: foliar, tomato leaf disc, compared to untreated control
Procedure: Tomato leaf disks cv. Baby are placed on agar in multiwell plates (24-well format) and sprayed with the formulated test compound diluted in water. The leaf disks are inoculated with a spore suspension of the fungus 2 days after application. The inoculated leaf disks are incubated at 23° C./21° C. (day/night) and 80% rh (relative humidity) under a light regime of 12/12 h (light/dark) in a climate cabinet and the activity of a compound is assessed as percent disease control compared to untreated when an appropriate level of disease damage appears on untreated check disk leaf disks (5-7 days after application).

[9] = system: Monographella nivalis (Microdochium nivale); assay: Monographella nivalis (Microdochium nivale)/Liquid Culture (Foot Rot Cereals); format: cell-based; conditions: liquid culture, compared to untreated control
Procedure, shortened: as §1

[10] = system: Mycosphaerella graminicola (Septoria tritici); assay: Mycosphaerella graminicola (Septoria tritici)/Liquid Culture (Septoria Blotch); format: cell-based; conditions: Zymoseptoria tritici; 20 ppm; liquid culture; compared to untreated control
Procedure, shortened: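 Results given as % disease control: test compound in DMSO was placed in wells first, then potato dextrose broth carrying cryostored fungal conidia was added.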

[11] = system: Botryotinia fuckeliana (Botrytis cinerea); assay: Botryotinia fuckeliana (Botrytis cinerea)/Liquid Culture (Gray Mould); format: cell-based; conditions: liquid culture, compared to untreated control
Procedure: Conidia of the fungus from cryogenic storage are directly mixed into nutrient broth (Vogels broth). After placing a (DMSO) solution of test compound into a microtiter plate (96-well format), the nutrient broth containing the fungal spores is added.

[12] = system: Puccinia recondita f. sp. tritici; assay: Puccinia recondita f. sp. tritici/Wheat/Leaf Disc Curative (Brown Rust); format: in vivo; conditions: foliar, wheat leaf disc curative, compared to untreated control
Procedure, shortened: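 Formulated compound, diluted in water, is applied to inoculated wheat cv. Kanzler leaf segments on agar one day post-inoculation (pre-incubation dark, 19° C, 75% rh). After 6-8 days at 19° C, 75% rh and 12 h/12 h light, activity is rated as percent disease control relative to untreated segments.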

[13] = system: Blumeria graminis f. sp. tritici (Erysiphe graminis f. sp. tritici); assay: Blumeria graminis f. sp. tritici/Wheat/Leaf Disc Preventative (Powdery Mildew on Wheat); format: in vivo; conditions: foliar, wheat leaf disc preventative, compared to untreated control
Procedure, shortened: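 Preventative leaf-disc test: percent disease control versus untreated leaf segments read 6-8 days post-application. Compound spray applied to wheat cv. Kanzler segments on agar one day before shaking infected plants over them; incubation at 20° C and 60% rh, 24 h darkness then 12 h light/12 h dark cycles.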

[14] = system: Glomerella lagenarium (Colletotrichum lagenarium); assay: Glomerella lagenarium (Colletotrichum lagenarium)/Liquid Culture (Anthracnose); format: cell-based; conditions: Colletotrichum orbiculare, liquid culture, compared to untreated control
[15] = system: Phakopsora pachyrhizi; assay: Phakopsora pachyrhizi/Soybean/Preventative (Soybean Rust); format: in vivo; conditions: 288 h
[16] = foliar, soybean leaf disc preventative, compared to untreated control, read-out: control of Phakopsora pachyrhizi

Row | Structure (SMILES) | melting point | pest or weed control at 200 ppm [1] | pest or weed control at 200 ppm [2] | pest or weed control at 200 ppm [3] | pest or weed control at 200 ppm [4] | pest or weed control at 200 ppm [5] | pest or weed control at 200 ppm [6] | inhibition of growth at 20 ppm [7] | pest or weed control at 200 ppm [8] | inhibition of growth at 20 ppm [9] | inhibition of growth at 20 ppm [10] | inhibition of growth at 20 ppm [11] | pest or weed control at 200 ppm [12] | pest or weed control at 200 ppm [13] | inhibition of growth at 20 ppm [14] | pest or weed control at 200 ppm [15, 16] | further results
1 | CO/C=C(\Oc1cc(-n2ccc(C#CC3CC3)n2)ccc1C)C(=O)OC [Compound E-1, methyl (Z)-2-[5-[3-(2-cyclopropylethynyl)pyra-zol-1-yl]-2-methyl-phenoxy]-3-methoxy-prop-2-enoate] | 158 to 162 °C | ≥ 80% | ≥ 80% | ≥ 80% | ≥ 80% | ≥ 80% | ≥ 80% | ≥ 80% | ≥ 80% | ≥ 80% | ≥ 80% |  |  |  |  |  | 
2 | CO/C=C(\Oc1cc(-n2ccc(C(F)(F)F)n2)c(C)cc1C)C(=O)OC [Compound E-16, methyl (Z)-2-[2,4-dimethyl-5-[3-(trifluoromethyl)pyrazol-1-yl]phenoxy]-3-methoxy-prop-2-enoate] | 96 to 98 °C |  |  |  | ≥ 80% |  |  | ≥ 80% | ≥ 80% | ≥ 80% | ≥ 80% | ≥ 80% | ≥ 80% | ≥ 80% | ≥ 80% |  | 
3 | CO/C=C(\Oc1cc(-n2ccc(C)n2)c(C)cc1C)C(=O)OC [Compound E-17, methyl (Z)-2-[2,4-dimethyl-5-(3-methylpyrazol-1-yl)phenoxy]-3-methoxy-prop-2-enoate] | 123 to 124 °C |  |  |  | ≥ 80% |  |  | ≥ 80% | ≥ 80% | ≥ 80% | ≥ 80% |  | ≥ 80% | ≥ 80% |  |  | 
4 | CO/C=C(\Oc1cc(-n2ccc(C(C)C)n2)c(Cl)cc1C)C(=O)OC [Compound E-29, methyl (Z)-2-[4-chloro-5-(3-isopropylpyrazol-1-yl)-2-methyl-phenoxy]-3-methoxy-prop-2-enoate] | 96 to 98 °C | ≥ 80% |  | ≥ 80% | ≥ 80% | ≥ 80% | ≥ 80% | ≥ 80% | ≥ 80% | ≥ 80% | ≥ 80% | ≥ 80% | ≥ 80% | ≥ 80% | ≥ 80% |  | 
5 | CO/C=C(\Oc1cc(-n2ccc(C)n2)c(F)cc1C)C(=O)OC [Compound E-64, methyl (Z)-2-[4-fluoro-2-methyl-5-(3-methylpyrazol-1-yl)phenoxy]-3-methoxy-prop-2-enoate] | 134 to 138 °C |  |  | ≥ 80% |  |  | ≥ 80% | ≥ 80% | ≥ 80% | ≥ 80% | ≥ 80% | ≥ 80% | ≥ 80% | ≥ 80% | ≥ 80% | ≥ 50% | 
6 | CO/C=C(\Oc1cc(-n2ccc(Cl)n2)ccc1Br)C(=O)OC [Compound E-85, methyl (Z)-2-[2-bromo-5-(3-chloropyrazol-1-yl)phenoxy]-3-methoxy-prop-2-enoate] |  |  |  | ≥ 80% | ≥ 80% | ≥ 80% | ≥ 80% | ≥ 80% | ≥ 80% | ≥ 80% | ≥ 80% | ≥ 80% |  | ≥ 80% | ≥ 80% | ≥ 50% | 
7 | CO/C=C(\Oc1cc(-n2ccc(C3CC3)n2)ccc1Cl)C(=O)OC [Compound E-99, methyl (Z)-2-[2-chloro-5-(3-cyclopropylpyrazol-1-yl)phenoxy]-3-methoxy-prop-2-enoate] |  | ≥ 80% |  | ≥ 80% | ≥ 80% | ≥ 80% | ≥ 80% | ≥ 80% | ≥ 80% | ≥ 80% | ≥ 80% | ≥ 80% | ≥ 80% | ≥ 80% | ≥ 80% | ≥ 50% | 
8 | CCCc1cnn(-c2ccc(C)c(O/C(=C\OC)C(=O)OC)c2)n1 [Compound F-2, methyl (Z)-3-methoxy-2-[2-methyl-5-(4-propyltriazol-2-yl)phenoxy]prop-2-enoate] |  | ≥ 80% | ≥ 80% | ≥ 80% |  | ≥ 80% | ≥ 80% | ≥ 80% | ≥ 80% | ≥ 80% | ≥ 80% |  |  |  | ≥ 80% |  | pest or weed control at 0.6 ppm ([15]; Phakopsora pachyrhizi (Soybean rust), 0.6 ppm): 0%; pest or weed control at 2 ppm ([15]; Phakopsora pachyrhizi (Soybean rust), 2 ppm): 20%; pest or weed control at 6 ppm ([15]; Phakopsora pachyrhizi (Soybean rust), 6 ppm): 50%; pest or weed control at 20 ppm ([15]; Phakopsora pachyrhizi (Soybean rust), 20 ppm): 90%; pest or weed control at 60 ppm ([15]; Phakopsora pachyrhizi (Soybean rust), 60 ppm): 100%; pest or weed control at 200 ppm ([15]; Phakopsora pachyrhizi (Soybean rust), read-out: control (%)): 100%
9 | CO/C=C(\Oc1cc(-n2ncc(C(C)C)n2)ccc1C)C(=O)OC [Compound F-4, methyl (Z)-2-[5-(4-isopropyltriazol-2-yl)-2-methyl-phenoxy]-3-methoxy-prop-2-enoate] |  | ≥ 80% | ≥ 80% | ≥ 80% |  | ≥ 80% | ≥ 80% | ≥ 80% | ≥ 80% | ≥ 80% | ≥ 80% |  |  | ≥ 80% | ≥ 80% |  | 
10 | CO/C=C(\Oc1cc(-n2nc(Br)c(Br)n2)ccc1C)C(=O)OC [Compound F-10, methyl (Z)-2-[5-(4,5-dibromotriazol-2-yl)-2-methyl-phenoxy]-3-methoxy-prop-2-enoate] |  | ≥ 80% | ≥ 80% | ≥ 80% | ≥ 80% | ≥ 80% | ≥ 80% | ≥ 80% | ≥ 80% |  | ≥ 80% |  |  | ≥ 80% | ≥ 80% |  | 
